Assay results from patent publication US9969977B2, “Cell populations which co-express CD49c and CD90” (GARNET BIOTHERAPEUTICS, priority 2002, dated 2018).

System: cells which co-expressed CD49c and CD90
Assay: qPCR of Sox-2 and Musashi transcripts with and without nifedipine treatment
Format: cell-based, human
Conditions: 5 μM nifedipine
Protocol: The expression of transcripts for Sox-2 and Musashi were determined using quantitative polymerase chain reaction (qPCR). Briefly, Master Cell Bank of CFUs were derived from a bone marrow aspirate and stored as frozen aliquots using the method of Example 1. An aliquot was thawed and the cells were seeded in 96 well plates at 2000 cells/well in complete media and incubated at 37° C. in an atmosphere consisting of 5% carbon dioxide, 5% oxygen and 90% nitrogen for 3 days. On the third day of culture, cells were treated with 5 μM nifedipine (an L-type calcium channel blocker). After 24 hours of treatment, RNA was isolated using the QIAGEN®RNeasy reagents and the Qiagen Biorobot 3000. An aliquot of the eluted RNA was used to synthesize cDNA. Specifically, RNA was mixed with Promega MMLV, dNTPS, decamers and RNasin and incubated at 37° C. for 1 hour, followed by heat inactivation.
For quantitative PCR, cDNA samples were combined with Applied Biosystems SYBR Green PCR Core reagents and amplicon specific primers, as described below, in a 384 well format. The 384 well plate was then transferred to the Applied Biosystems ABI Prism 7900 for qPCR analysis. The qPCR program entailed a 2 minute cycle at 50 degrees, followed by a 10 minute cycle at 95 degrees to activate the polymerase. This was then followed by 40 amplification cycles consisting of 15 seconds of melting at 95 degrees and one minute of extension/annealing at 60 degrees. Cycle threshold values were converted into relative transcript number using a standard curve then normalized using the corresponding 18s. Data are expressed as a ratio of transcript per 10^6 18s transcripts.

## COC(=O)C1=C(C)NC(C)=C(C(=O)OC)C1c1ccccc1[N+](=O)[O-] [nifedipine]
24 hours
  Sox-2 expression in response to nifedipine: 28 transcripts/10^6 transcripts of 18S RNA
24 hours of stimulation
  Musashi expression in response to nifedipine: 0.093 transcripts/10^6 transcripts of 18S RNA
24 hours vs unstimulated
  increase in Musashi expression: ~17 fold
  increase in Sox-2 expression: ~7 fold
